Assay results: patent publication US20260226402A1, “IMPROVED MICROBIAL GROWTH MEDIA” (Becton, Dickinson and Company, priority 2023, published 2026)

Legend:
[1] = test system: yeast and other microorganisms
Procedure: (§1) TTD testing was performed using 28 organisms with a target CFU of 10-100 in blood volumes of 0 or 0.5 mL, organism dependent, 3 mL, and 10 mL. The organisms tested are illustrated in FIG. 20. Four different concentrations of iron provided as ferric ammonium citrate (0 g/L, 0.01 g/L, 0.035 g/L, and 0.06 g/L) in the media otherwise as described in Example 1, and three different concentrations of oxygen (47%, 54%, and 60%) were tested. FIG. 21 illustrates the combination of conditions tested. The testing was run in replicates of three. Prior to the day of testing, the bottles were racked and labeled, and the organisms were sub-cultured accordingly. Each organism to be tested was grown overnight on an appropriate plated medium. Each organism was carefully checked for purity. […] The organism is then re-cultured. 0.1 mL of the final organism dilution was dispensed and spread on the appropriate agar for plate counts. Using aseptic technique, each bottle containing 30 ml of microbial growth media was amended with 0, 0.5, 3, or 10 mL of bagged human blood using the appropriate syringe and needle. Paired sets were inoculated with blood from the same donor unit at the same time. The bottles were then inoculated with 0.1 mL of the appropriate organism. After inoculation, the bottles were loaded onto a BACTEC FX instrument using a standard protocol length of 120 hours. Paired bottles were entered into the FX at the same time in adjacent positions. […] The data from each experiment was organized for statistical testing via a general linear model analysis of variance (ANOVA). Blood volumes of 0 or 0.5, 3, and 10 mL were recoded as 0, 3, and 10 mL to help balance the design. Additional models were assessed holding the blood volume constant. FIG. 56 illustrates the results of the ANOVA analyzing the effects of the tested conditions on TTD. FIG. 57 illustrates the results of the ANOVA parameter estimates and prediction equation. There was an expectation that only the yeast category would show a significant effect with the iron addition. Other categories were monitored to ensure no adverse effects.

Candida glabrata = test: TTD testing with varied iron and O2 (Example 2); type: cell-based
Procedure: as §1

Candida albicans = test: TTD testing with varied iron and O2 (Example 2); type: cell-based
Procedure: as §1

[2] = iron 0, 0.01, 0.035, 0.06 g/L tested

`O=O` [oxygen] was tested, and the “optimal gaseous headspace O2 concentration for TTD” value [1] was “about 54%”, the “effect on TTD of increasing oxygen concentration in headspace gas” value ([1]; from 47% to 60% O2) was “decreased the TTD” and the “optimal gaseous headspace O2 concentration for TTD” value (Candida glabrata; 47%, 54%, 60% O2 tested) was “about 54%”. For the same compound, the “effect on TTD of increasing oxygen concentration in headspace gas” value (Candida glabrata; from 47% to 60% O2) was “decreased the TTD”, the “optimal gaseous headspace O2 concentration for TTD” value (Candida albicans; 47%, 54%, 60% O2 tested) was “about 54%” and the “effect on TTD of increasing oxygen concentration in headspace gas” value (Candida albicans; from 47% to 60% O2) was “decreased the TTD”.
In the case of ferric ammonium citrate [iron], the “optimal iron concentration for TTD” value [1, 2] was “about 0.035 g/L”, the “effect on TTD of increasing iron concentration in the media” value ([1]; iron from 0 to 0.06 g/L, blood 0/0.5, 3, 10 mL) was “decreased the TTD” and the “effect of iron on TTD, ANOVA result” value ([1]; yeast category, general linear model ANOVA) was “lowers the TTD of yeasts”. For the same compound, the “optimal iron concentration for TTD” value (Candida glabrata; [2]) was “about 0.035 g/L”, the “effect on TTD of increasing iron concentration in the media” value (Candida glabrata; iron from 0 to 0.06 g/L) was “decreased the TTD” and the “optimal iron concentration for TTD” value (Candida albicans; [2]) was “about 0.035 g/L”. The “effect on TTD of increasing iron concentration in the media” value (Candida albicans; iron from 0 to 0.06 g/L) was “decreased the TTD”.
